Active and inactive are the calls of the source.

Assay [1] has as its target T1, Dual specificity mitogen-activated protein kinase kinase 3 (Homo sapiens, UniProt P46734).
T1 sequence (P46734 whole entry): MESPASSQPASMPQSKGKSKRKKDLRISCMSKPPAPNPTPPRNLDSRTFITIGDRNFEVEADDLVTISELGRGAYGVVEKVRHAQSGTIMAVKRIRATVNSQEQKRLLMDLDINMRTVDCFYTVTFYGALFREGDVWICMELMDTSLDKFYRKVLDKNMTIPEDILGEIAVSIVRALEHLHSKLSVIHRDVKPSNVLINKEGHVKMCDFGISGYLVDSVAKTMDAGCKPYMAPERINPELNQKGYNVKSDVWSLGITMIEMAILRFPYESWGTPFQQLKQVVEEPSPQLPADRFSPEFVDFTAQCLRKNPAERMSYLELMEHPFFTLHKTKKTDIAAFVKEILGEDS

In assay [2] the target is Ras-related protein Rab-6A (Homo sapiens, UniProt P20340).
Sequence of Ras-related protein Rab-6A (P20340 whole entry): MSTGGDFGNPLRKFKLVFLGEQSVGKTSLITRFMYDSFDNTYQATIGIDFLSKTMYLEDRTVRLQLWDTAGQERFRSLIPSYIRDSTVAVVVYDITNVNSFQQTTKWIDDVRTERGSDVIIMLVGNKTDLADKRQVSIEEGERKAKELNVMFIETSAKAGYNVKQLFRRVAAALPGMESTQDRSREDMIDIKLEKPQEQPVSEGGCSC
Assay [3] concerns the target T2, Membrane-associated tyrosine- and threonine-specific cdc2-inhibitory kinase (Homo sapiens, UniProt Q99640).
T2 sequence (Q99640 whole entry): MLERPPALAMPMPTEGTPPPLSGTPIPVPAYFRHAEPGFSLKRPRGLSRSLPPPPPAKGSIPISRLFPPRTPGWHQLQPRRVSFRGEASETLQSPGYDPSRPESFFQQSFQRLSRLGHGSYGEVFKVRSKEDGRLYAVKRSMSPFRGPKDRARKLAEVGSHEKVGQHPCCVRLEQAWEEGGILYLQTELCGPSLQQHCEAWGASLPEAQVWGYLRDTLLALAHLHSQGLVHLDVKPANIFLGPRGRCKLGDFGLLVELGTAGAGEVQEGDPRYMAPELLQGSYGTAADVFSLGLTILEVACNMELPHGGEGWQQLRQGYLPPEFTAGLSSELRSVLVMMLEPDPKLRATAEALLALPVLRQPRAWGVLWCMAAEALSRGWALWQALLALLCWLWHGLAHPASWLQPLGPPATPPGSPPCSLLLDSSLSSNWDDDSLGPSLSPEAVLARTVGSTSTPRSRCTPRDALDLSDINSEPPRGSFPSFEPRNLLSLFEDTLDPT

Assay [4] concerns the target Mitogen-activated protein kinase kinase kinase 1 (Homo sapiens, UniProt Q13233).
In assay [5] the target is Cyclin-dependent kinase 5 (Homo sapiens, UniProt Q00535).
Sequence of Cyclin-dependent kinase 5 (Q00535 whole entry): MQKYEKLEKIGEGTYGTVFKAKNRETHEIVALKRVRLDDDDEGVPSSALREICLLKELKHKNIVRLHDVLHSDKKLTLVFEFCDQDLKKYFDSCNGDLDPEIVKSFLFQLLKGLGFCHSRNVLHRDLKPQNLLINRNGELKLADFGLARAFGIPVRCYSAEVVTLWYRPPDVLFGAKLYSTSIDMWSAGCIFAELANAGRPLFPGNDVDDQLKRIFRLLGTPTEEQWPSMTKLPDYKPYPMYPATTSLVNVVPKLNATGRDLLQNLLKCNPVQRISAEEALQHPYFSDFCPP
Assay [6] deals with Mitogen-activated protein kinase 1 (Homo sapiens, UniProt P28482).
Sequence of Mitogen-activated protein kinase 1 (P28482 whole entry): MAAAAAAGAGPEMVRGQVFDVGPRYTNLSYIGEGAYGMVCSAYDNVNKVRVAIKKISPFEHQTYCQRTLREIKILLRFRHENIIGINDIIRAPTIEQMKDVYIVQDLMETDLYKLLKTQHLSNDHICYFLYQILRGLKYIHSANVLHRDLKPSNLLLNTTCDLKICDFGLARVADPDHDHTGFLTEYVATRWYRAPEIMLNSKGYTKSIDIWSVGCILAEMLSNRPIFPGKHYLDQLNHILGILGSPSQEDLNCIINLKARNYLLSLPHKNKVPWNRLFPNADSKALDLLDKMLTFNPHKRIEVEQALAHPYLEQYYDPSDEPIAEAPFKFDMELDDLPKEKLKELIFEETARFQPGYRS
For assay [7], the target named is T3, STE20-related kinase adapter protein alpha (Homo sapiens, UniProt Q7RTN6).
T3 sequence (Q7RTN6 whole entry): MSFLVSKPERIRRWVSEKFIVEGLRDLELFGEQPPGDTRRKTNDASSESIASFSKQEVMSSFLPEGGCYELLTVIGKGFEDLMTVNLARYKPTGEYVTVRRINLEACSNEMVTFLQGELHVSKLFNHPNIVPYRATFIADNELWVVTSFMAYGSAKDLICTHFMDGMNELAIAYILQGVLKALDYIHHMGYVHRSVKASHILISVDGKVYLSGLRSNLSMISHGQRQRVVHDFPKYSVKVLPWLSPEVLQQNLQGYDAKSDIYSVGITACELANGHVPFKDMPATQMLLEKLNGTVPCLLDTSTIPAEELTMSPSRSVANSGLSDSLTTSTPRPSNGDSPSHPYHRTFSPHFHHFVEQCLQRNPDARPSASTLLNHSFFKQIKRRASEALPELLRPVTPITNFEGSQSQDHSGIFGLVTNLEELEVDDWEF

For assay [8], the target named is T4, Serine/threonine-protein kinase Nek1 (Homo sapiens, UniProt Q96PY6).
T4 sequence (Q96PY6 whole entry): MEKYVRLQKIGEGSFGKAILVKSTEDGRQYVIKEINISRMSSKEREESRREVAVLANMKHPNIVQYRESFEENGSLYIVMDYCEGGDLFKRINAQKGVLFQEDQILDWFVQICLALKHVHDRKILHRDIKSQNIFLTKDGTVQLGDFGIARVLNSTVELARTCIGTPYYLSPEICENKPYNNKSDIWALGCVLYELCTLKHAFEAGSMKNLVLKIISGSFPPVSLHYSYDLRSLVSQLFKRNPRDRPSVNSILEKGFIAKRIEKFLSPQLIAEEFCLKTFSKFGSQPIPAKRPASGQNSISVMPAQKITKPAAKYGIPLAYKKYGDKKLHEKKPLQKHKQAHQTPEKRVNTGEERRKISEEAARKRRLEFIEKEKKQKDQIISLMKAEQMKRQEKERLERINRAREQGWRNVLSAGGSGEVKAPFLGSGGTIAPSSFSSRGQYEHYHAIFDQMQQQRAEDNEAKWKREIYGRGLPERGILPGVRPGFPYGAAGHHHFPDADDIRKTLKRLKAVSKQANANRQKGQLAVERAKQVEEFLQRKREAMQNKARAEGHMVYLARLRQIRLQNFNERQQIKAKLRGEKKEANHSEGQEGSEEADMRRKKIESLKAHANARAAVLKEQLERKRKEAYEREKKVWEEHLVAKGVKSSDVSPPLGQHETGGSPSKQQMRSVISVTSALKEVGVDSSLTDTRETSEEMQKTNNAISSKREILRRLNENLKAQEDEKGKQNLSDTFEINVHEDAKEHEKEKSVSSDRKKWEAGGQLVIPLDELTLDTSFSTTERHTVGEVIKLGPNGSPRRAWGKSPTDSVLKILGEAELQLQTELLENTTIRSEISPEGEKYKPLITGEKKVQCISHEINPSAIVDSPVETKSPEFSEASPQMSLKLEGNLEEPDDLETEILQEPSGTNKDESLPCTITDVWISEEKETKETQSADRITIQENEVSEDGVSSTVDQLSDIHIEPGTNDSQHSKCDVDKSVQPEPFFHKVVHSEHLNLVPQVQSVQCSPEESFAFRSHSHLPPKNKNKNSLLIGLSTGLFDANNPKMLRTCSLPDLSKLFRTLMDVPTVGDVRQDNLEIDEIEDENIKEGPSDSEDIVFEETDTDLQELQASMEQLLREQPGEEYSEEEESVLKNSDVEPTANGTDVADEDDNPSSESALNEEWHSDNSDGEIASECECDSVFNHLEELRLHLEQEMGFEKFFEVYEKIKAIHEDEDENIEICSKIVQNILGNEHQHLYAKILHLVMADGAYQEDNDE
Also: in the data inactive means no Kd found up to 30 µM.

Sequence of Mitogen-activated protein kinase kinase kinase 1 (Q13233 whole entry): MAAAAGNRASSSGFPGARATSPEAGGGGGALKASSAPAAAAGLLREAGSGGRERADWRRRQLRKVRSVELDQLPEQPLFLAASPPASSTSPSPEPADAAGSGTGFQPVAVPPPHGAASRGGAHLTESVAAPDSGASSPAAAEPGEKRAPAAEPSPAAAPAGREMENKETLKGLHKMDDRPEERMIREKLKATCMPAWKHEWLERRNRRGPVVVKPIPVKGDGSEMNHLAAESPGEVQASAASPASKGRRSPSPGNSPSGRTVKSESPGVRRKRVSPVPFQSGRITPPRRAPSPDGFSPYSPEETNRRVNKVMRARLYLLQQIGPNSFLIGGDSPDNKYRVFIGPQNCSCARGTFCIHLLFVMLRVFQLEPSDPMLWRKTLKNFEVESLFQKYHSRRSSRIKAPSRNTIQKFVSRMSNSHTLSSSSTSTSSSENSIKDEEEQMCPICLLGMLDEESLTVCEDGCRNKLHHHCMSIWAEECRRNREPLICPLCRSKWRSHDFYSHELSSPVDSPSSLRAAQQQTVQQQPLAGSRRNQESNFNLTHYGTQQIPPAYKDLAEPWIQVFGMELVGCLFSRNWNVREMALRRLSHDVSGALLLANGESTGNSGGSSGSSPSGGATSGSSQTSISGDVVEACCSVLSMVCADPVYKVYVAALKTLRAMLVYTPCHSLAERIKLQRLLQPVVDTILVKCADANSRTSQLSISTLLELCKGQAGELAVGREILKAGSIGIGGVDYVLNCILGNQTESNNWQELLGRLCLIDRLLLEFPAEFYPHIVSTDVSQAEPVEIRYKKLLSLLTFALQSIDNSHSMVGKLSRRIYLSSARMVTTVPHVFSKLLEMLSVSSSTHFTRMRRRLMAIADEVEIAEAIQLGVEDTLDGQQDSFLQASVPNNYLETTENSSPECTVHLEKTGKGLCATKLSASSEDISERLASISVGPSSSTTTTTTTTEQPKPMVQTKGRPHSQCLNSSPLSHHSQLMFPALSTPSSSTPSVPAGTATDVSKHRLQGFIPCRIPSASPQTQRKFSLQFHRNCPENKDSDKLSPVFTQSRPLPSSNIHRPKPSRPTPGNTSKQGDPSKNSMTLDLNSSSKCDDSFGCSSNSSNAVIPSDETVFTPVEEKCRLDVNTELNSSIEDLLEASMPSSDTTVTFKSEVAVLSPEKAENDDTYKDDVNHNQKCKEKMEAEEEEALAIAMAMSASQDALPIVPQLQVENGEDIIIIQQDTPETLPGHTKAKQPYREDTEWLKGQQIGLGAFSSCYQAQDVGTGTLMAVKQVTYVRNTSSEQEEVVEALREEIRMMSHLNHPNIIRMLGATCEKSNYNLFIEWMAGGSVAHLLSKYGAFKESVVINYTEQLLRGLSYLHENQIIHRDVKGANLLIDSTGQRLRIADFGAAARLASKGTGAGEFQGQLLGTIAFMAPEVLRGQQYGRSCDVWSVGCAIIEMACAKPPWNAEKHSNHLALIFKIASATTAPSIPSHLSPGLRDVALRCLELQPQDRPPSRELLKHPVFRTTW

Turning to `S=C(NCc1ccc2c(c1)OCO2)N1CCN(c2ncnc3c2oc2ccccc23)CC1` [AMUVATINIB], the Kd in assay [1], in assay [2], in assay [3], in assay [4], in assay [5] and in assay [6] was > 30 µM (inactive) throughout. The Kd in assay [7] and in assay [8] was > 30 µM (inactive) throughout.
`O[C@H]1CC[C@H](Nc2ncc3nc(Nc4c(F)cc(F)cc4F)n([C@H]4CCOC4)c3n2)CC1` [TANZISERTIB]: the Kd – broadly, the constant that tells how readily two partners part at equilibrium – in assay [1] was > 30 µM (inactive); in assay [2], > 30 µM (inactive); in assay [3], > 30 µM (inactive); in assay [4], > 30 µM (inactive); in assay [5] it was > 30 µM (inactive); in assay [6], 1.23 µM (active). Besides, the Kd in assay [7] and in assay [8] was > 30 µM (inactive) in each case.
On to `COc1cccc2cc(-c3nc([C@H]4CC[C@H](C(=O)O)CC4)n4ncnc(N)c34)[nH]c12` [OSI-027], for which the Kd in assay [1], in assay [2], in assay [3], in assay [4], in assay [5] and in assay [6] was > 30 µM (inactive) each time. Besides, the Kd in assay [7] and in assay [8] was > 30 µM (inactive) each time.
Turning to `O=C(O)c1ccc2c(c1)nc(Nc1cccc(Cl)c1)c1ccncc12` [SILMITASERTIB], the Kd in assay [1] was > 30 µM (inactive); in assay [2] it was > 30 µM (inactive); in assay [3], > 30 µM (inactive); in assay [4] it was > 30 µM (inactive); in assay [5] it was 0.514 µM (active); in assay [6], > 30 µM (inactive). Further, the Kd in assay [7] and in assay [8] was > 30 µM (inactive) each time.
Regarding `c1cc(OCCN2CCCCC2)cc(-c2n[nH]c3ccc(-c4nc[nH]n4)cc23)c1` [CC-401], the Kd in assay [1], in assay [2], in assay [3], in assay [4], in assay [5] and in assay [6] was > 30 µM (inactive) each time. Further, the Kd in assay [7] and in assay [8] was > 30 µM (inactive) each time.
For the compound `COc1cc2ncnc(Nc3ccc(O)cc3)c2cc1OC` [WHI-P131], the Kd in assay [1], in assay [2], in assay [3], in assay [4], in assay [5] and in assay [6] was > 30 µM (inactive) throughout. The Kd in assay [7] and in assay [8] was > 30 µM (inactive) in each case.
In the case of `O=C(Nc1ccc(OC(F)(F)F)cc1)c1sccc1NCc1ccnc2ccccc12` [OSI-930], the Kd in assay [1], in assay [2], in assay [3], in assay [4], in assay [5] and in assay [6] was > 30 µM (inactive) in each case. The Kd in assay [7] and in assay [8] was > 30 µM (inactive) each time.
As for `CNC(=O)c1ccc(Nc2ncc(C(F)(F)F)c(NCc3nccnc3N(C)S(C)(=O)=O)n2)cc1` [DEFACTINIB], the Kd was > 30 µM (inactive) in assay [1]; > 30 µM (inactive) in assay [2]; > 30 µM (inactive) in assay [3]; > 30 µM (inactive) in assay [4]; 1.41 µM (active) in assay [5]; > 30 µM (inactive) in assay [6]. Besides, the Kd in assay [7] and in assay [8] was > 30 µM (inactive) each time.
In the case of `CN1CCN(c2nc(C3=C(c4c[nH]c5ccccc45)C(=O)NC3=O)c3ccccc3n2)CC1` [SOTRASTAURIN], the Kd in assay [1], in assay [2], in assay [3], in assay [4], in assay [5] and in assay [6] was > 30 µM (inactive) each time. The Kd in assay [7] and in assay [8] was > 30 µM (inactive) in each case.
As for `N#CCNC(=O)c1ccc(-c2ccnc(Nc3ccc(N4CCOCC4)cc3)n2)cc1` [MOMELOTINIB], the Kd in assay [1], in assay [2], in assay [3], in assay [4], in assay [5] and in assay [6] was > 30 µM (inactive) in each case. The Kd in assay [8] is > 30 µM (inactive).
Regarding `C=CCN(/C=C1/C(=O)O[C@H](COC)[C@@]2(C)C1=C(O)C(=O)C1=C2[C@H](OC(C)=O)C[C@]2(C)C(=O)CC[C@@H]12)CC=C` [SONOLISIB], the Kd in assay [1], in assay [3], in assay [4], in assay [5], in assay [6] and in assay [7] was > 30 µM (inactive) throughout. Also, in assay [8], the Kd was > 30 µM (inactive).
In the case of `COc1cccc(Nc2ncnn3ccc(CN4CC[C@@H](N)[C@H](O)C4)c23)c1` [BMS-690514], the Kd is > 30 µM (inactive) in assay [1]; 1.85 µM (active) in assay [3]; > 30 µM (inactive) in assay [4]; > 30 µM (inactive) in assay [5]; > 30 µM (inactive) in assay [6]; > 30 µM (inactive) in assay [7]. In addition, in assay [8], the Kd was > 30 µM (inactive).
Consider `NC[C@@](O)(c1ccc(Cl)cc1)c1ccc(-c2cn[nH]c2)cc1` [AT-13148], for which the Kd in assay [1], in assay [3], in assay [4], in assay [5], in assay [6] and in assay [7] was > 30 µM (inactive) each time. For the same compound, in assay [8], the Kd is > 30 µM (inactive).

The values above are taken from ChEMBL document CHEMBL3991601, “The target landscape of clinical kinase drugs” (Science, 2017).
